According to patent publication US4068070A, “α-Cyanoamine compounds and a process for producing the same” (Fuji Chemical Industry Co., Ltd., priority 1974, dated 1978):

Experiments:
Type in all cases: in vivo, mongrel adult dogs
[1] = tested on: aortic blood flow; assay: Effects on aortic blood flow
Method: (§1) All experiments were made on male and female thoractomized mongrel adult dogs weighing about 10 kg. under anesthesia with pentobarbital sodium. Compounds A, D, E and F were suspended in 0.2% CMC solution, Compound B dissolved in hydrochloric acid solution (pH 6), and Compound C and active placebo being dissolved in physiological saline solution. Animals were administered the drug intravenously on brachiuma with either test compound or active placebo.
(§2) Arterial blood pressure was measured by pressure transducer (Nippon Koden MPU-0.5) connected with the cannula inserted from exposed carotid artery into aorta. Aortic blood flow was determined by means of electromagnetic flow meter (Nippon Koden MF-5) mounted at the origin of the aorta. Coronary sinus out flow and coronary sinus oxygen tension were assessed by means of electromagnetic flow meter (Nippon Koden MF-5) and P02 macro electrode (Beokmann Moder 160-C), respectively using Morawitz cannulization technique. Heart rate was measured by cardiotachometer (Nippon Koden RT-2) synchronized with systolic blood pressure of aorta.

[2] = tested on: heart rate; assay: Effects on heart rate
Method: as §1, §2

[3] = tested on: arterial mean blood pressure; assay: Effects on arterial mean blood pressure
Method: as §1, §2

[4] = tested on: coronary sinus oxygen tension; assay: Effects on coronary sinus oxygen tension
Method: as §1, §2

[5] = tested on: coronary sinus out flow; assay: Effects on coronary sinus out flow
Method: as §1, §2

Structure (SMILES): COc1ccc(C(C#N)N2CCN(CC=Cc3ccccc3)CC2)cc1OC (centres unmarked) [Compound D]
- Changes (%) of basal values, aortic blood flow ([1]; 2.0 mg/kg i.v., 1 min): +3.3%
- Changes (%) of basal values, aortic blood flow ([1]; 2.0 mg/kg i.v., 5 min): -0.8%
- Changes (%) of basal values, aortic blood flow ([1]; 2.0 mg/kg i.v., 10 min): 0%
- Changes (%) of basal values, aortic blood flow ([1]; 2.0 mg/kg i.v., 20 min): 0%
- Changes (%) of basal values, aortic blood flow ([1]; 2.0 mg/kg i.v., 30 min): 0%
- Changes (%) of basal values, aortic blood flow ([1]; 2.0 mg/kg i.v., 40 min): 0%
- Changes (%) of basal values, aortic blood flow ([1]; 2.0 mg/kg i.v., imm.): +8.3%
- Changes (%) of basal values, aortic blood flow ([1]; 6.0 mg/kg i.v., 1 min): +3.3%
- Changes (%) of basal values, aortic blood flow ([1]; 6.0 mg/kg i.v., 5 min): -2.7%
- Changes (%) of basal values, aortic blood flow ([1]; 6.0 mg/kg i.v., 10 min): +0.7%
- Changes (%) of basal values, aortic blood flow ([1]; 6.0 mg/kg i.v., 20 min): +0.5%
- Changes (%) of basal values, aortic blood flow ([1]; 6.0 mg/kg i.v., 30 min): 0%
- Changes (%) of basal values, aortic blood flow ([1]; 6.0 mg/kg i.v., 40 min): 0%
- Changes (%) of basal values, aortic blood flow ([1]; 6.0 mg/kg i.v., imm.): +12.0%
- Changes (%) of basal values, aortic blood flow ([1]; 20.0 mg/kg i.v., 1 min): +16.3%
- Changes (%) of basal values, aortic blood flow ([1]; 20.0 mg/kg i.v., 5 min): -3.8%
- Changes (%) of basal values, aortic blood flow ([1]; 20.0 mg/kg i.v., 10 min): -4.0%
- Changes (%) of basal values, aortic blood flow ([1]; 20.0 mg/kg i.v., 20 min): -3.4%
- Changes (%) of basal values, aortic blood flow ([1]; 20.0 mg/kg i.v., 30 min): -1.8%
- Changes (%) of basal values, aortic blood flow ([1]; 20.0 mg/kg i.v., 40 min): -0.3%
- Changes (%) of basal values, aortic blood flow ([1]; 20.0 mg/kg i.v., imm.): +27.4%
- Effects on aortic blood flow (in words) ([1]; i.v., anesthetized dogs): an increase in blood flow immediately after administration, followed by a decrease in blood flow
- Changes(%) of basal values, heart rate ([2]; 2.0 mg/kg i.v., 1 min): +1.0%
- Changes(%) of basal values, heart rate ([2]; 2.0 mg/kg i.v., 5 min): 0%
- Changes(%) of basal values, heart rate ([2]; 2.0 mg/kg i.v., 10 min): 0%
- Changes(%) of basal values, heart rate ([2]; 2.0 mg/kg i.v., 20 min): 0%
- Changes(%) of basal values, heart rate ([2]; 2.0 mg/kg i.v., 30 min): 0%
- Changes(%) of basal values, heart rate ([2]; 2.0 mg/kg i.v., 40 min): 0%
- Changes(%) of basal values, heart rate ([2]; 2.0 mg/kg i.v., imm.): -0.6%
- Changes(%) of basal values, heart rate ([2]; 6.0 mg/kg i.v., 1 min): +1.5%
- Changes(%) of basal values, heart rate ([2]; 6.0 mg/kg i.v., 5 min): -0.9%
- Changes(%) of basal values, heart rate ([2]; 6.0 mg/kg i.v., 10 min): -1.6%
- Changes(%) of basal values, heart rate ([2]; 6.0 mg/kg i.v., 20 min): -1.0%
- Changes(%) of basal values, heart rate ([2]; 6.0 mg/kg i.v., 30 min): -0.5%
- Changes(%) of basal values, heart rate ([2]; 6.0 mg/kg i.v., 40 min): 0%
- Changes(%) of basal values, heart rate ([2]; 6.0 mg/kg i.v., imm.): -1.5%
- Changes(%) of basal values, heart rate ([2]; 20.0 mg/kg i.v., 1 min): -3.1%
- Changes(%) of basal values, heart rate ([2]; 20.0 mg/kg i.v., 5 min): -3.5%
- Changes(%) of basal values, heart rate ([2]; 20.0 mg/kg i.v., 10 min): -3.9%
- Changes(%) of basal values, heart rate ([2]; 20.0 mg/kg i.v., 20 min): -2.8%
- Changes(%) of basal values, heart rate ([2]; 20.0 mg/kg i.v., 30 min): -1.3%
- Changes(%) of basal values, heart rate ([2]; 20.0 mg/kg i.v., 40 min): -0.5%
- Changes(%) of basal values, heart rate ([2]; 20.0 mg/kg i.v., imm.): -14.5%
- Effects on heart rate (in words) ([2]; i.v., anesthetized dogs): a slight negative chronotropic effect
- Changes (%) of basal values, arterial mean blood pressure ([3]; 2.0 mg/kg i.v., 1 min): +1.6%
- Changes (%) of basal values, arterial mean blood pressure ([3]; 2.0 mg/kg i.v., 5 min): -3.0%
- Changes (%) of basal values, arterial mean blood pressure ([3]; 2.0 mg/kg i.v., 10 min): -1.5%
- Changes (%) of basal values, arterial mean blood pressure ([3]; 2.0 mg/kg i.v., 20 min): -0.5%
- Changes (%) of basal values, arterial mean blood pressure ([3]; 2.0 mg/kg i.v., 30 min): 0%
- Changes (%) of basal values, arterial mean blood pressure ([3]; 2.0 mg/kg i.v., 40 min): 0%
- Changes (%) of basal values, arterial mean blood pressure ([3]; 2.0 mg/kg i.v., imm.): -13.6%
- Changes (%) of basal values, arterial mean blood pressure ([3]; 6.0 mg/kg i.v., 1 min): -9.7%
- Changes (%) of basal values, arterial mean blood pressure ([3]; 6.0 mg/kg i.v., 5 min): -10.3%
- Changes (%) of basal values, arterial mean blood pressure ([3]; 6.0 mg/kg i.v., 10 min): -10.0%
- Changes (%) of basal values, arterial mean blood pressure ([3]; 6.0 mg/kg i.v., 20 min): -6.0%
- Changes (%) of basal values, arterial mean blood pressure ([3]; 6.0 mg/kg i.v., 30 min): -3.0%
- Changes (%) of basal values, arterial mean blood pressure ([3]; 6.0 mg/kg i.v., 40 min): -1.0%
- Changes (%) of basal values, arterial mean blood pressure ([3]; 6.0 mg/kg i.v., imm.): -36.1%
- Changes (%) of basal values, arterial mean blood pressure ([3]; 20.0 mg/kg i.v., 1 min): -19.7%
- Changes (%) of basal values, arterial mean blood pressure ([3]; 20.0 mg/kg i.v., 5 min): -14.4%
- Changes (%) of basal values, arterial mean blood pressure ([3]; 20.0 mg/kg i.v., 10 min): -13.5%
- Changes (%) of basal values, arterial mean blood pressure ([3]; 20.0 mg/kg i.v., 20 min): -8.3%
- Changes (%) of basal values, arterial mean blood pressure ([3]; 20.0 mg/kg i.v., 30 min): -5.1%
- Changes (%) of basal values, arterial mean blood pressure ([3]; 20.0 mg/kg i.v., 40 min): -3.1%
- Changes (%) of basal values, arterial mean blood pressure ([3]; 20.0 mg/kg i.v., imm.): -45.0%
- Effects on arterial mean blood pressure (in words) ([3]; i.v., anesthetized dogs): hypotensive effects being proportioned to their doses which were of long duration
- Changes(%) of basal values, coronary sinus oxygen tension ([4]; 2.0 mg/kg i.v., 1 min): +2.7%
- Changes(%) of basal values, coronary sinus oxygen tension ([4]; 2.0 mg/kg i.v., 5 min): +0.5%
- Changes(%) of basal values, coronary sinus oxygen tension ([4]; 2.0 mg/kg i.v., 10 min): -1.0%
- Changes(%) of basal values, coronary sinus oxygen tension ([4]; 2.0 mg/kg i.v., 20 min): -0.5%
- Changes(%) of basal values, coronary sinus oxygen tension ([4]; 2.0 mg/kg i.v., 30 min): 0%
- Changes(%) of basal values, coronary sinus oxygen tension ([4]; 2.0 mg/kg i.v., 40 min): 0%
- Changes(%) of basal values, coronary sinus oxygen tension ([4]; 2.0 mg/kg i.v., imm.): +6.7%
- Changes(%) of basal values, coronary sinus oxygen tension ([4]; 6.0 mg/kg i.v., 1 min): +14.0%
- Changes(%) of basal values, coronary sinus oxygen tension ([4]; 6.0 mg/kg i.v., 5 min): +5.8%
- Changes(%) of basal values, coronary sinus oxygen tension ([4]; 6.0 mg/kg i.v., 10 min): +1.0%
- Changes(%) of basal values, coronary sinus oxygen tension ([4]; 6.0 mg/kg i.v., 20 min): -1.0%
- Changes(%) of basal values, coronary sinus oxygen tension ([4]; 6.0 mg/kg i.v., 30 min): 0%
- Changes(%) of basal values, coronary sinus oxygen tension ([4]; 6.0 mg/kg i.v., 40 min): 0%
- Changes(%) of basal values, coronary sinus oxygen tension ([4]; 6.0 mg/kg i.v., imm.): +23.8%
- Changes(%) of basal values, coronary sinus oxygen tension ([4]; 20.0 mg/kg i.v., 1 min): +43.8%
- Changes(%) of basal values, coronary sinus oxygen tension ([4]; 20.0 mg/kg i.v., 5 min): -21.2%
- Changes(%) of basal values, coronary sinus oxygen tension ([4]; 20.0 mg/kg i.v., 10 min): +8.4%
- Changes(%) of basal values, coronary sinus oxygen tension ([4]; 20.0 mg/kg i.v., 20 min): +3.2%
- Changes(%) of basal values, coronary sinus oxygen tension ([4]; 20.0 mg/kg i.v., 30 min): +2.0%
- Changes(%) of basal values, coronary sinus oxygen tension ([4]; 20.0 mg/kg i.v., 40 min): +0.2%
- Changes(%) of basal values, coronary sinus oxygen tension ([4]; 20.0 mg/kg i.v., imm.): +60.3%
- Effects on coronary sinus oxygen tension (in words) ([4]; i.v., anesthetized dogs): a significant increase in coronary sinus oxygen tension, effect of which was of long duration
- Changes(%) of basal values, coronary sinus out flow ([5]; 2.0 mg/kg i.v., 1 min): +1.6%
- Changes(%) of basal values, coronary sinus out flow ([5]; 2.0 mg/kg i.v., 5 min): -3.1%
- Changes(%) of basal values, coronary sinus out flow ([5]; 2.0 mg/kg i.v., 10 min): -1.0%
- Changes(%) of basal values, coronary sinus out flow ([5]; 2.0 mg/kg i.v., 20 min): 0%
- Changes(%) of basal values, coronary sinus out flow ([5]; 2.0 mg/kg i.v., 30 min): 0%
- Changes(%) of basal values, coronary sinus out flow ([5]; 2.0 mg/kg i.v., 40 min): 0%
- Changes(%) of basal values, coronary sinus out flow ([5]; 2.0 mg/kg i.v., imm.): +6.2%
- Changes(%) of basal values, coronary sinus out flow ([5]; 6.0 mg/kg i.v., 1 min): +9.1%
- Changes(%) of basal values, coronary sinus out flow ([5]; 6.0 mg/kg i.v., 5 min): -0.2%
- Changes(%) of basal values, coronary sinus out flow ([5]; 6.0 mg/kg i.v., 10 min): -0.4%
- Changes(%) of basal values, coronary sinus out flow ([5]; 6.0 mg/kg i.v., 20 min): -0.2%
- Changes(%) of basal values, coronary sinus out flow ([5]; 6.0 mg/kg i.v., 30 min): 0%
- Changes(%) of basal values, coronary sinus out flow ([5]; 6.0 mg/kg i.v., 40 min): 0%
- Changes(%) of basal values, coronary sinus out flow ([5]; 6.0 mg/kg i.v., imm.): +23.0%
- Changes(%) of basal values, coronary sinus out flow ([5]; 20.0 mg/kg i.v., 1 min): +49.3%
- Changes(%) of basal values, coronary sinus out flow ([5]; 20.0 mg/kg i.v., 5 min): +9.1%
- Changes(%) of basal values, coronary sinus out flow ([5]; 20.0 mg/kg i.v., 10 min): +8.4%
- Changes(%) of basal values, coronary sinus out flow ([5]; 20.0 mg/kg i.v., 20 min): +8.0%
- Changes(%) of basal values, coronary sinus out flow ([5]; 20.0 mg/kg i.v., 30 min): +5.7%
- Changes(%) of basal values, coronary sinus out flow ([5]; 20.0 mg/kg i.v., 40 min): +3.0%
- Changes(%) of basal values, coronary sinus out flow ([5]; 20.0 mg/kg i.v., imm.): +66.2%
- Effects on coronary sinus out flow (in words) ([5]; i.v., anesthetized dogs): a marked increasing effect on coronary sinus out flow, which was proportioned to doses thereof and of long duration
